Measurements as given in patent US9315545B2, “Hepcidin mimetic peptides and uses thereof” (MERGANSER BIOTECH, INC., priority 2014, dated 2016).
≈ marks a conversion by molar mass, not a printed value. Entries after “also recorded” stand apart in the source; their conditions may differ. Where two headings read alike, the source gives them in different places.

Tests used:
[1] = Stability in sodium acetate buffer pH 6 at two temperatures, reversed-phase HPLC; type: physicochemical; details: for % Purity of the Compound, 6 Hours 25° C. / % Purity of the Compound, 6 Hours 40° C.: sodium acetate buffer pH 6, 6 hours; for Change in Main Peak % Area After 18 H Incubation, 40° C. / Change in Main Peak % Area After 18 H Incubation, 25° C.: sodium acetate buffer pH 6, 18 h; for % Purity of the Compound, 18 Hours 40° C. / % Purity of the Compound, 18 Hours 25° C.: sodium acetate buffer pH 6, 18 hours; for % Purity of the Compound, Initial: sodium acetate buffer pH 6, initial
Description: Three other compounds were also tested, Compound 2, Compound 3, and Compound 4. Compounds 2, 3, and 4 are modifications of Compound 1 at the sidechain of Cysteine 7. Compound 2 has a disulfide bond attached to Cysteine 7, Compound 3 has thioester bond attached to Cysteine 7, and Compound 4 has an ethyl group attached to the sidechain sulfur of Cysteine 7. The peptides were incubated in sodium acetate buffer pH 6 at two temperature conditions and then analyzed via reversed-phase HPLC. The chromatography performed was with an Ascentis Phenyl 2.7 micron column (4.6×150 mm). The binary gradient (1 ml/min) was 36% to 56% B in 40 minutes followed by an increase to 65% B in 5 minutes where A=0.1% trifluoroacetic acid in water and B=0.1% trifluoroacetic acid in acetonitrile.

[2] = Stability of Compound 1 pH 6 formulations at 40° C. with antioxidants (HPLC % AUC); type: physicochemical
Description: Initially the stability of Compound 1 was previously characterized and there was significant degradation observed by HPLC after about 24 hours at 40° C. […] The effect of various antioxidants and thiol scavengers that might be used in a medicament were studied.

serum iron = experiment: Serum iron reduction after subcutaneous administration in the rat (hepcidin mimetic activity); type: in vivo; details: 7.5 mg/kg
Description: (§1) Compounds 1-4 were tested in rats to determine compound pharmacokinetics and hepcidin mimetic activity in vivo as measured by serum iron reduction. The effectiveness of the compounds for serum iron reduction should correlate with the treatment of iron metabolism disorders. Individual compounds, in this example and the following examples were generally formulated in DSPE-PEG(2000) (SUNBRIGHT® DSPE-020CN, NOF America Corporation) (30 mg/mL) and dosed subcutaneously at a compound dose of 7.5 mg/kg.
(§2) The compound was prepared according to the following typical preparation. The dosing solution was prepared (7.5 mg compound/mL in clear solution) by weighing the compound into vial and an aliquot of ethanol is added into the vial and mixture vortexed. DSPE-020CN was added and the solution was vortexed, and, if necessary, the mixture was heated at 37° C. for 10-15 minutes to fully dissolve the DSPE-020CN. The ethanol was evaporated with nitrogen gas stream for 1-3 hours. Sterile water was then added and the mixture was vortexed or, if necessary, sonicated to give a clear solution.
Serum iron was measured during the 24 h following subcutaneous administration in a rat of Compounds 1-4 and is summarized in FIG. 1. […] The observed effects on serum iron were unexpectedly similar in Compounds 1-3 despite the differences at Cysteine 7 and the differences in blood levels of the compounds (Table 7).

[3] = Compound blood levels after subcutaneous administration in the rat (LC/MS); type: in vivo; details: 7.5 mg/kg
Description: as §1, §2
After subcutaneous injection compound quantities in blood were measured over the subsequent 24 hours via LC/MS.

[4] = In vitro stability of compounds in rat plasma (37° C.); type: in vitro ADME
Description: The in vitro stability of Compounds 1-4 in rat plasma at 37° C. was examined to give an indication of stability in a whole animal model (Table 6).

physchem = type: physicochemical
Description: Different solvent compositions with different properties that are commonly used as a basis for pharmaceutical compositions were added to known quantities of the indicated compound and mixed. If a clear solution was not obtained, additional solvent was added and the solution mixed. […] For example “50-100” would indicate that the compound was not soluble at 100 mg/mL but upon additional solvent to have a final concentration of 50 mg/mL, the compound was soluble.

[5] = type: physicochemical
Description: An additional critical aspect in drug delivery is retention of solubility with time (physical stability), especially under refrigerated conditions. […] Unexpectedly, clear differences in physical stability were observed between Compound 5 and other compounds with only minor changes in sequence (e.g. Compounds 7 and 8). The combination of unexpected solubility of greater than 100 mg/mL in mildly acidic conditions and lack of significant changes in solution character after refrigeration, are unexpected and advantageous for a pharmaceutical product.

significant degradation peaks observed by HPLC [1] | % Purity of the Compound, 6 Hours 25° C. [1] [%] | % Purity of the Compound, 6 Hours 40° C. ([1]; 40° C.) [%] | Change in Main Peak % Area After 18 H Incubation, 40° C. ([1]; 40° C.) | % Purity of the Compound, 18 Hours 40° C. ([1]; 40° C.) [%] | % Purity of the Compound, Initial [1] [%] | Change in Main Peak % Area After 18 H Incubation, 25° C. [1] [%] | % Purity of the Compound, 18 Hours 25° C. [1] [%] | AUC(0-t) ([3]; in vivo, sc) [ng·h/mL] | blood levels of Compound 1 (metabolite) after dosing the labelled compound ([3]; in vivo, sc) | In vitro plasma stability (Ratio of compound/benfluorex (std) degradation) [4] | half-life ([4]; rat, plasma) [min] | Structure (SMILES) | reduction in serum iron (in words) (serum iron) | degradation after 18 hours at 40° C. (in words) [1] | also measured
a single major peak | 58.9 | 11.9 | −95-100% | <5 | 96.9 | – | – | – | – | – | – | CCCCCCCCCCCCCCCCNC(=O)CN(CC(N)=O)C(=O)CCCCCNC(=O)C(Cc1c[nH]c2ccccc12)NC(=O)C(CCCNC(=N)N)NC(=O)C(CS)NC(=O)C(CCCNC(=N)N)NC(=O)CC1CCCN1C(=O)C(NC(=O)C(Cc1c[nH]cn1)NC(=O)C(NC(=O)CNCC(=O)O)C(C)O)C(c1ccccc1)c1ccccc1 (stereo not drawn) [Compound 1, reference compound] | significant drop in serum iron level | – | degradation after 18 hours at 40° C. (in words) ([1]; 18 hours, 40° C.): almost completely degraded; main peak (% AUC) lost ([2]; after about 24 hours at 40° C., no antioxidant): 90%; Difference (%) (T24 − T0) ([2]; pH 6 formulation, antioxidant 10 mM or none, 40° C.): −90%; Main peak % AUC, T0 ([2]; pH 6 formulation, antioxidant 10 mM or none, 40° C., T0): 94.4 % AUC; Main peak % AUC, T ~24 hours ([2]; pH 6 formulation, antioxidant 10 mM or none, 40° C., ~24 hours): ~4.0 (estimated) % AUC; AUC(0-t) ([3]; sc, subcutaneous, blood, dosed compound itself, read-out: AUC(0-24) (hr*ng/mL, mean ± SD)): 2750 ng·h/mL; blood levels of the dosed compound (in words) ([3]; subcutaneous): remains little changed out to at least 24 hours; In vitro plasma stability (Ratio of compound/benfluorex (std) degradation) ([4]; rat plasma, 37° C.): 0.41; half-life ([4]; rat plasma, 37° C., read-out: In vitro plasma stability (T ½)): 23 min
no significant degradation peak | 99.6 | 99.4 | −0.1% | 99.4 | 99.5 | −0.2 | 99.3 | 1010 | unexpectedly higher than expected | 0.98 | 40 | CCCCCCCCCCCCCCCCNC(=O)CN(CC(N)=O)C(=O)CCCCCNC(=O)C(Cc1c[nH]c2ccccc12)NC(=O)C(CCCNC(=N)N)NC(=O)C(CSSC)NC(=O)C(CCCNC(=N)N)NC(=O)CC1CCCN1C(=O)C(NC(=O)C(Cc1c[nH]cn1)NC(=O)C(NC(=O)CNCC(=O)O)C(C)O)C(c1ccccc1)c1ccccc1 (stereo not drawn) [Compound 2] | – | little degradation observed | solubility (physchem; Solubility (mg/mL) at Ambient Temperature, 30% PEG 400): 25 to 35 mg/mL (≈ 13.9 to 19.4 mM); solubility (physchem; Solubility (mg/mL) at Ambient Temperature, 50% EtOH/water): > 100 mg/mL; solubility (physchem; Solubility (mg/mL) at Ambient Temperature, Water): 50 to 100 mg/mL (≈ 27.7 to 55.4 mM); solubility (physchem; pH 2.3, Solubility (mg/mL) at Ambient Temperature, 10% Tween 80 pH 2.3-2.8): 60 to 100 mg/mL (≈ 33.3 to 55.4 mM); solubility (physchem; pH 2.7, Solubility (mg/mL) at Ambient Temperature, 50% propylene glycol, pH 2.7): 50 to 100 mg/mL (≈ 27.7 to 55.4 mM); change of solubility with pH (in words) (physchem; pH 4): marked decrease in solubility above pH 4; solubility (physchem; pH 4.5, Solubility (mg/mL) at Ambient Temperature, 10% Tween 80 pH 4.5-5.0): 50 to 100 mg/mL (≈ 27.7 to 55.4 mM); solubility (physchem; pH 5, Solubility (mg/mL) at Ambient Temperature, 2% Tween 80 pH 5): < 50 mg/mL; solubility (physchem; pH 5.5, Solubility (mg/mL) at Ambient Temperature, 10% Tween 80 pH 5.5-6.0): 25 to 30 mg/mL (≈ 13.9 to 16.6 mM); solubility (physchem; pH 6.4, Solubility (mg/mL) at Ambient Temperature, 2% Tween pH 6.4): < 10 mg/mL; Solution Appearance after 7 days Storage at 2-8° C., 2% Tween 80 pH 5 ([5]; 2% Tween 80 pH 5): Gel; Solution Appearance after 7 days Storage at 2-8° C., 2% Tween pH 6.4 ([5]; 2% Tween pH 6.4): Gel; Solution Appearance after 7 days Storage at 2-8° C., 10% Tween 80 pH 2.3-2.8 ([5]; 10% Tween 80 pH 2.3-2.8): Gel; Solution Appearance after 7 days Storage at 2-8° C., 10% Tween 80 pH 4.5-5.0 ([5]; 10% Tween 80 pH 4.5-5.0): Gel; Solution Appearance after 7 days Storage at 2-8° C., 30% PEG 400 ([5]; 30% PEG 400): Gel; Solution Appearance after 7 days Storage at 2-8° C., 50% EtOH/water ([5]; 50% EtOH/water): Gel; Solution Appearance after 7 days Storage at 2-8° C., 50% propylene glycol, pH 2.7 ([5]; 50% propylene glycol, pH 2.7): Gel; Solution Appearance after 7 days Storage at 2-8° C., Water ([5]; Water): Gel
– | 96.8 | 96.6 | 0.3% | 97.0 | 96.7 | −0.5 | 96.2 | 25600 | No levels of Compound 1 were detected | 2.74 | 112 | CCCCCCCCCCCCCCCCNC(=O)CN(CC(N)=O)C(=O)CCCCCNC(=O)C(Cc1c[nH]c2ccccc12)NC(=O)C(CCCNC(=N)N)NC(=O)C(CSCC)NC(=O)C(CCCNC(=N)N)NC(=O)CC1CCCN1C(=O)C(NC(=O)C(Cc1c[nH]cn1)NC(=O)C(NC(=O)CNCC(=O)O)C(C)O)C(c1ccccc1)c1ccccc1 (stereo not drawn) [Compound 4] | minimal reduction in serum iron after 24 h; also recorded: little activity in vivo | no evidence of degradation involving the cysteine | blood levels of the dosed compound (in words) ([3]; in vivo, sc): very high blood levels

Structure (SMILES) | significant degradation peaks observed by HPLC [1] | % Purity of the Compound, 6 Hours 25° C. [1] [%] | % Purity of the Compound, 6 Hours 40° C. ([1]; 40° C.) [%] | Change in Main Peak % Area After 18 H Incubation, 40° C. ([1]; 40° C.) | % Purity of the Compound, 18 Hours 40° C. ([1]; 40° C.) [%] | % Purity of the Compound, Initial [1] [%] | Change in Main Peak % Area After 18 H Incubation, 25° C. [1] [%] | % Purity of the Compound, 18 Hours 25° C. [1] [%] | AUC(0-t) ([3]; in vivo, sc) [ng·h/mL] | blood levels of Compound 1 (metabolite) after dosing the labelled compound ([3]; in vivo, sc) | In vitro plasma stability (Ratio of compound/benfluorex (std) degradation) [4] | half-life ([4]; rat, plasma) [min] | reduction in serum iron (in words) (serum iron) | degradation after 18 hours at 40° C. (in words) [1] | also measured
CCCCCCCCCCCCCCCCNC(=O)CN(CC(N)=O)C(=O)CCCCCNC(=O)C(Cc1c[nH]c2ccccc12)NC(=O)C(CCCNC(=N)N)NC(=O)C(CSC(C)=O)NC(=O)C(CCCNC(=N)N)NC(=O)CC1CCCN1C(=O)C(NC(=O)C(Cc1c[nH]cn1)NC(=O)C(NC(=O)CNCC(=O)O)C(C)O)C(c1ccccc1)c1ccccc1 (stereo not drawn) [Compound 3] | multiple major peaks | 96.9 | 84.9 | −30% | 67.2 | 97.3 | −2.3 | 95.1 | 12200 | comparable to the levels observed when just Compound 1 was dosed | 1.78 | 73 | – | – | degradation after 18 hours at 40° C. [1]: 30%; blood levels relative to those observed in Compound 1 ([3]; in vivo, sc): 5-9 times
